According to patent US20050197338A1, “Substituted pyrazole urea compounds for the treatment of inflammation” (priority 2003, published 2005):

target: T1, Rat IKK-2 (Rattus norvegicus, UniProt Q9QY78); test: Rat IKK-2 enzyme assay; assay type: biochemical; settings: read-out: IC50 (μM) rIKK-2
T1 sequence (Q9QY78 1-757): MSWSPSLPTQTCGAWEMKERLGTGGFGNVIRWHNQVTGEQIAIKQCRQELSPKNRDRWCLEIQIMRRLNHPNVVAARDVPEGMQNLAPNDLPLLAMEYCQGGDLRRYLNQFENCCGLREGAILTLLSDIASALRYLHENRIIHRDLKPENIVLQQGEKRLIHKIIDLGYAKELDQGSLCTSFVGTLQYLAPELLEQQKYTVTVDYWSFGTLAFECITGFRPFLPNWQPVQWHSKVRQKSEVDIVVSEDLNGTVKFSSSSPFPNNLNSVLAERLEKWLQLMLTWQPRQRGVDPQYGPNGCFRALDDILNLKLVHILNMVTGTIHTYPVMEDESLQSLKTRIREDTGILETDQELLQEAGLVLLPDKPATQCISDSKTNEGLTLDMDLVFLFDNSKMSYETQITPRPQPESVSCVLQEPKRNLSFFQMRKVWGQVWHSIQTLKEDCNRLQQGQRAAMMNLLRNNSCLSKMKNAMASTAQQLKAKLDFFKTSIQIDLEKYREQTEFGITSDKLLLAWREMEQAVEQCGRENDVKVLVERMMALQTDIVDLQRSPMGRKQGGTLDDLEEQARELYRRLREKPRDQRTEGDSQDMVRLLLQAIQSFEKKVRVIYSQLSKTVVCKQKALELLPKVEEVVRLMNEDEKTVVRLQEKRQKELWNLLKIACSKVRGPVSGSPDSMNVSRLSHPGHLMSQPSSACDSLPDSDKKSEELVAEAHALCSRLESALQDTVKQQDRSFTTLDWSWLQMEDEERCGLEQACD

Row | Structure (SMILES) | IC50
1 | CC(C)(C)OC(=O)COc1cccc(-c2ccc(-n3cc(NC(N)=O)c(C(N)=O)n3)cc2)c1 [Example 174, tert-butyl [(4′-{3-(aminocarbonyl)-4-[(aminocarbonyl)amino]-1H-pyrazol-1-yl}-1,1′-biphenyl-3-yl)oxy]acetate] | 2.49 µM
2 | NC(=O)Nc1cn(-c2ccc(-c3ccc(C(=O)OCc4ccccc4F)c(F)c3)cc2)nc1C(N)=O [Example 162, 2-fluorobenzyl 4′-{3-(aminocarbonyl)-4-[(aminocarbonyl)amino]-1H-pyrazol-1-yl}-3-fluoro-1,1′-biphenyl-4-carboxylate] | 13.6 µM
3 | NC(=O)Nc1cn(-c2ccc(Br)c(F)c2)nc1C(N)=O [Example 225, 4-[(aminocarbonyl)amino]-1-(4-bromo-3-fluorophenyl)-1H-pyrazole-3-carboxamide] | 0.292 µM
4 | Cc1cc(I)ccc1-n1cc(NC(N)=O)c(C(N)=O)n1 [Example 4, 1-(4-iodo-2-methyl-phenyl)-4-ureido-1H-pyrazole-3-carboxylic acid amide] | 1.93 µM

Further compounds by falling IC50, results first:

Row | IC50 | Structure (SMILES)
5 | 3.71 µM | Cc1cc(-c2cccc(O)c2)ccc1-n1cc(NC(N)=O)c(C(N)=O)n1 [Example 5, 4-[(aminocarbonyl)amino]-1-(3′-hydroxy-3-methyl-1,1′-biphenyl-4-yl)-1H-pyrazole-3-carboxamide]
6 | 0.668 µM | NC(=O)Nc1cn(-c2ccc(-c3ccc(F)cc3O)cc2)nc1C(N)=O [Example 98, 4-[(aminocarbonyl)amino]-1-(4′-fluoro-2′-hydroxy-1,1′-biphenyl-4-yl)-1H-pyrazole-3-carboxamide]
7 | 0.441 µM | NC(=O)Nc1cn(-c2ccc(-c3ccc(-c4nnn[nH]4)cc3)cc2)nc1C(N)=O [Example 187, 4-[(aminocarbonyl)amino]-1-[4′-(1H-tetrazol-5-yl)-1,1′-biphenyl-4-yl]-1H-pyrazole-3-carboxamide]
